Values after ≈ are worked out from the molar mass of the structure shown. Like-named read-outs stand apart in the source and are kept apart here.
Tests used:
Format in all cases: cell-based
S. aureus MP-12 = test: Broth dilution MIC determination (CLSI), S. aureus MP-12; conditions: Staphylococcus aureus, MP12; strain MP-12, broth dilution
K. pneumoniae MP-546 = test: Broth dilution MIC determination (CLSI), K. pneumoniae MP-546; conditions: Klebsiella pneumoniae, MP546; strain MP-546, broth dilution
E. coli MP-4 = test: Broth dilution MIC determination (CLSI), E. coli MP-4; conditions: Escherichia coli
A. baumannii MP-15 = test: Broth dilution MIC determination (CLSI), A. baumannii MP-15; conditions: Acinetobacter baumannii, MP15; strain MP-15, broth dilution; read-out: MIC A. baumanii MP-15
P. aeruginosa MP-3 = test: Broth dilution MIC determination (CLSI), P. aeruginosa MP-3; conditions: Pseudomonas aeruginosa, MP3; strain MP-3, broth dilution
[1] = MP4, strain MP-4, broth dilution, read-out: MIC E. coli MP-4

SMILES | MIC (S. aureus MP-12) [µg/mL] | MIC (K. pneumoniae MP-546) [µg/mL] | MIC (A. baumannii MP-15) [µg/mL] | MIC (P. aeruginosa MP-3) [µg/mL] | MIC (E. coli MP-4; [1]) [µg/mL] | MIC (E. coli MP-4; MP4, read-out: MIC E. coli MP-4) [µg/mL]
CO[C@]1(C)C[C@@H](C)CN(C)[C@H](C2CN(CC=C(C)C)C2)COC(=O)C(C)(C)C(=O)[C@H](C)[C@H]1O[C@@H]1O[C@H](C)C[C@H](N(C)C)[C@H]1O [Compound 155, (3R,6R,8R,9R,10R)-9-(((2S,3R,4S,6R)-4-(dimethylamino)-3-hydroxy-6-methyltetrahydro-2H-pyran-2-yl)oxy)-8-methoxy-4,6,8,10,12,12-hexamethyl-3-(1-(3-methylbut-2-en-1-yl)azetidin-3-yl)-1-oxa-4-azacyclotridecane-11,13-dione] | 4 to 32 (≈ 6.41 to 51.3 µM) | < 4 | 4 to 32 (≈ 6.41 to 51.3 µM) | > 32 |  | < 4
CO[C@]1(C)C[C@@H](C)CN(C)[C@H](C2CCN(C(=O)CN(C)C)CC2)[C@H](C)OC(=O)C(C)(C)C(=O)[C@H](C)[C@H]1O[C@@H]1O[C@H](C)C[C@H](N(C)C)[C@H]1O [Compound 159, (2S,3R,6R,8R,9R,10R)-9-(((2S,3R,4S,6R)-4-(dimethylamino)-3-hydroxy-6-methyltetrahydro-2H-pyran-2-yl)oxy)-3-(1-(dimethylglycyl)piperidin-4-yl)-8-methoxy-2,4,6,8,10,12,12-heptamethyl-1-oxa-4-azacyclotridecane-11,13-dione] | > 32 | > 32 | > 32 | > 32 | 4 to 32 (≈ 5.86 to 46.9 µM) | 
CO[C@]1(C)C[C@@H](C)CN(C)[C@H](C2CN(C(=O)CC(C)(C)CN(C)CC(C)C)C2)COC(=O)C(C)(C)C(=O)[C@H](C)[C@H]1O[C@@H]1O[C@H](C)C[C@H](N(C)C)[C@H]1O [Compound 167, (3R,6R,8R,9R,10R)-9-(((2S,3R,4S,6R)-4-(dimethylamino)-3-hydroxy-6-methyltetrahydro-2H-pyran-2-yl)oxy)-3-(1-(4-(isobutyl(methyl)amino)-3,3-dimethylbutanoyl)azetidin-3-yl)-8-methoxy-4,6,8,10,12,12-hexamethyl-1-oxa-4-azacyclotridecane-11,13-dione] | 4 to 32 (≈ 5.41 to 43.3 µM) | 4 to 32 (≈ 5.41 to 43.3 µM) | > 32 | > 32 | < 4 | 
CO[C@]1(C)C[C@@H](C)CN(C)[C@H](C2CC3CCC(C2)N3C(C)C)COC(=O)C(C)(C)C(=O)[C@H](C)[C@H]1O[C@@H]1O[C@H](C)C[C@H](N(C)C)[C@H]1O (stereo partly drawn) [Compound 170, (3R,6R,8R,9R,10R)-9-(((2S,3R,4S,6R)-4-(dimethylamino)-3-hydroxy-6-methyltetrahydro-2H-pyran-2-yl)oxy)-3-(8-isopropyl-8-azabicyclo[3.2.1]octan-3-yl)-8-methoxy-4,6,8,10,12,12-hexamethyl-1-oxa-4-azacyclotridecane-11,13-dione] | 4 to 32 (≈ 6.14 to 49.1 µM) | 4 to 32 (≈ 6.14 to 49.1 µM) | > 32 | > 32 | 4 to 32 (≈ 6.14 to 49.1 µM) | 
CO[C@]1(C)C[C@@H](C)CN(C(C)=O)[C@H](C2CCN(C(C)C)CC2)COC(=O)C(C)(C)C(=O)[C@H](C)[C@H]1O[C@@H]1O[C@H](C)C[C@H](N(C)C)[C@H]1O [Compound 174, (3R,6R,8R,9R,10R)-4-Acetyl-9-(((2S,3R,4S,6R)-4-(dimethylamino)-3-hydroxy-6-methyltetrahydro-2H-pyran-2-yl)oxy)-3-(1-isopropylpiperidin-4-yl)-8-methoxy-6,8,10,12,12-pentamethyl-1-oxa-4-azacyclotridecane-11,13-dione] | > 32 | > 32 | > 32 | > 32 | > 32 | 
CCN1CCC([C@H]2COC(=O)C(C)(C)C(=O)[C@H](C)[C@@H](O[C@@H]3O[C@H](C)C[C@H](N(C)C)[C@H]3O)[C@](C)(OC)C[C@@H](C)CN2C)CC1 [Compound 175, (3S,6R,8R,9R,10R)-9-(((2S,3R,4S,6R)-4-(dimethylamino)-3-hydroxy-6-methyltetrahydro-2H-pyran-2-yl)oxy)-3-(1-ethylpiperidin-4-yl)-8-methoxy-4,6,8,10,12,12-hexamethyl-1-oxa-4-azacyclotridecane-11,13-dione] | 4 to 32 (≈ 6.54 to 52.3 µM) | < 4 | > 32 | > 32 | < 4 | 
CO[C@]1(C)C[C@@H](C)CN(C)[C@H](C2CCN(Cc3nccn3C)CC2)COC(=O)C(C)(C)C(=O)[C@H](C)[C@H]1O[C@@H]1O[C@H](C)C[C@H](N(C)C)[C@H]1O [Compound 179, (3R,6R,8R,9R,10R)-9-(((2S,3R,4S,6R)-4-(dimethylamino)-3-hydroxy-6-methyltetrahydro-2H-pyran-2-yl)oxy)-8-methoxy-4,6,8,10,12,12-hexamethyl-3-(1-((1-methyl-1H-imidazol-2-yl)methyl)piperidin-4-yl)-1-oxa-4-azacyclotridecane-11,13-dione] | 4 to 32 (≈ 5.9 to 47.2 µM) | 4 to 32 (≈ 5.9 to 47.2 µM) | > 32 | > 32 | < 4 | 
CO[C@]1(C)C[C@@H](C)CN(C)[C@@H]([C@H]2CC[C@H](N(C)C(=O)CNC3CC3)CC2)COC(=O)C(C)(C)C(=O)[C@H](C)[C@H]1O[C@@H]1O[C@H](C)C[C@H](N(C)C)[C@H]1O [Compound 180, 2-(cyclopropylamino)-N-((1S,4r)-4-((3S,6R,8R,9R,10R)-9-(((2S,3R,4S,6R)-4-(dimethylamino)-3-hydroxy-6-methyltetrahydro-2H-pyran-2-yl)oxy)-8-methoxy-4,6,8,10,12,12-hexamethyl-11,13-dioxo-1-oxa-4-azacyclotridecan-3-yl)cyclohexyl)-N-methylacetamide] | > 32 | > 32 | > 32 | > 32 | 4 to 32 (≈ 5.64 to 45.1 µM) | 

More lines, main results first:

MIC (S. aureus MP-12) [µg/mL] | MIC (K. pneumoniae MP-546) [µg/mL] | MIC (A. baumannii MP-15) [µg/mL] | MIC (P. aeruginosa MP-3) [µg/mL] | MIC (E. coli MP-4; [1]) [µg/mL] | SMILES | MIC (E. coli MP-4; MP4, read-out: MIC E. coli MP-4) [µg/mL]
> 32 | 4 to 32 (≈ 6.25 to 50 µM) | > 32 | > 32 | 4 to 32 (≈ 6.25 to 50 µM) | CCN(C)[C@H]1CC[C@H]([C@H]2COC(=O)C(C)(C)C(=O)[C@H](C)[C@@H](O[C@@H]3O[C@H](C)C[C@H](N(C)C)[C@H]3O)[C@](C)(OC)C[C@@H](C)CN2C)CC1 [Compound 157, (3S,6R,8R,9R,10R)-9-(((2S,3R,4S,6R)-4-(dimethylamino)-3-hydroxy-6-methyltetrahydro-2H-pyran-2-yl)oxy)-3-((1r,4S)-4-(ethyl(methyl)amino)cyclohexyl)-8-methoxy-4,6,8,10,12,12-hexamethyl-1-oxa-4-azacyclotridecane-11,13-dione] | 
> 32 | < 4 | > 32 | > 32 | < 4 | CO[C@]1(C)C[C@@H](C)CN(C)[C@H]([C@H]2CCN(C)C2)COC(=O)C(C)(C)C(=O)[C@H](C)[C@H]1O[C@@H]1O[C@H](C)C[C@H](N(C)C)[C@H]1O [Compound 166, (3R,6R,8R,9R,10R)-9-(((2S,3R,4S,6R)-4-(Dimethylamino)-3-hydroxy-6-methyltetrahydro-2H-pyran-2-yl)oxy)-8-methoxy-4,6,8,10,12,12-hexamethyl-3-((S)-1-methylpyrrolidin-3-yl)-1-oxa-4-azacyclotridecane-11,13-dione] | 
4 to 32 (≈ 6.11 to 48.9 µM) | 4 to 32 (≈ 6.11 to 48.9 µM) | > 32 | > 32 | < 4 | CO[C@]1(C)C[C@@H](C)CN(C)[C@@H]([C@@H]2CCN(C(=O)CN(C)C)C2)COC(=O)C(C)(C)C(=O)[C@H](C)[C@H]1O[C@@H]1O[C@H](C)C[C@H](N(C)C)[C@H]1O [Compound 169, (3S,6R,8R,9R,10R)-9-(((2S,3R,4S,6R)-4-(Dimethylamino)-3-hydroxy-6-methyltetrahydro-2H-pyran-2-yl)oxy)-3-((R)-1-(dimethylglycyl)pyrrolidin-3-yl)-8-methoxy-4,6,8,10,12,12-hexamethyl-1-oxa-4-azacyclotridecane-11,13-dione] | 
> 32 | 4 to 32 (≈ 6.69 to 53.5 µM) | > 32 | > 32 | 4 to 32 (≈ 6.69 to 53.5 µM) | CO[C@]1(C)C[C@@H](C)CN(C)[C@H]([C@H]2CCCN(C)C2)COC(=O)C(C)(C)C(=O)[C@H](C)[C@H]1O[C@@H]1O[C@H](C)C[C@H](N(C)C)[C@H]1O [Compound 171, (3R,6R,8R,9R,10R)-9-(((2S,3R,4S,6R)-4-(dimethylamino)-3-hydroxy-6-methyltetrahydro-2H-pyran-2-yl)oxy)-8-methoxy-4,6,8,10,12,12-hexamethyl-3-((S)-1-methylpiperidin-3-yl)-1-oxa-4-azacyclotridecane-11,13-dione] | 
> 32 | > 32 | > 32 | > 32 | 4 to 32 (≈ 6.16 to 49.2 µM) | CO[C@]1(C)C[C@@H](C)CN(C)[C@H](C2CN(Cc3cn(C)cn3)C2)COC(=O)C(C)(C)C(=O)[C@H](C)[C@H]1O[C@@H]1O[C@H](C)C[C@H](N(C)C)[C@H]1O [Compound 173, (3R,6R,8R,9R,10R)-9-(((2S,3R,4S,6R)-4-(dimethylamino)-3-hydroxy-6-methyltetrahydro-2H-pyran-2-yl)oxy)-8-methoxy-4,6,8,10,12,12-hexamethyl-3-(1-((1-methyl-1H-imidazol-4-yl)methyl)azetidin-3-yl)-1-oxa-4-azacyclotridecane-11,13-dione] | 
> 32 | < 4 | > 32 | > 32 | < 4 | CO[C@]1(C)C[C@@H](C)CN(C)[C@H]([C@@H]2CCN(C)C2)COC(=O)C(C)(C)C(=O)[C@H](C)[C@H]1O[C@@H]1O[C@H](C)C[C@H](N(C)C)[C@H]1O [Compound 182, (3R,6R,8R,9R,10R)-9-(((2S,3R,4S,6R)-4-(dimethylamino)-3-hydroxy-6-methyltetrahydro-2H-pyran-2-yl)oxy)-8-methoxy-4,6,8,10,12,12-hexamethyl-3-((R)-1-methylpyrrolidin-3-yl)-1-oxa-4-azacyclotridecane-11,13-dione] | 

Reference: patent US20220177508A1, “C10-Cyclic Substituted 13-Membered Macrolides and Uses Thereof” (Zikani Therapeutics, Inc., priority 2018, published 2022)
